In ChEMBL document CHEMBL1127134, “Synthesis and antibacterial activity of (1R,5R,6R)-2-tert-butyl-6-(1-hydroxyethyl)oxapenem-3-carboxylic acid” (1993):

How the values were obtained:
Type in all cases: functional
Thomasclavelia ramosa = experiment: Minimum inhibitory concentration required for the antibacterial activity against Clostridium ramosum DSM 1402
Staphylococcus = experiment: Minimum inhibitory concentration required for the antibacterial activity against Staphylococcus E 25485
Bacteroides fragilis [1] = experiment: Minimum inhibitory concentration required for the antibacterial activity against Bacillus fragilis GA I - 0558 Japan
Escherichia coli [2] = experiment: Minimum inhibitory concentration required for the antibacterial activity against Escherichia coli T7
Bacteroides fragilis [3] = experiment: Minimum inhibitory concentration required for the antibacterial activity against Bacillus fragilis 1560 I/82
Proteus vulgaris [4] = experiment: Minimum inhibitory concentration required for the antibacterial activity against Proteus vulgaris N6
Klebsiella [5] = experiment: Minimum inhibitory concentration required for the antibacterial activity against Klebsiella 57USA
Staphylococcus aureus [6] = experiment: Minimum inhibitory concentration required for the antibacterial activity against Staphylococcus aureus 4978 Israel
Clostridium perfringens [7] = experiment: Minimum inhibitory concentration required for the antibacterial activity against Clostridium perfringens 1024027
Enterococcus [8] = experiment: Minimum inhibitory concentration required for the antibacterial activity against Enterococcus 27158
Phocaeicola vulgatus = experiment: Minimum inhibitory concentration required for the antibacterial activity against Bacillus valgatus Kr III
Morganella morganii = experiment: Minimum inhibitory concentration required for the antibacterial activity against Proteus Morganii 932
Bacteroides fragilis [9] = experiment: Minimum inhibitory concentration required for the antibacterial activity against Bacillus fragilis Kr 1 TV
[10] = test system: Parabacteroides distasonis; experiment: Minimum inhibitory concentration required for the antibacterial activity against Bacillus distasonis Kr
Staphylococcus aureus [11] = experiment: Minimum inhibitory concentration required for the antibacterial activity against Staphylococcus aureus 1756
Bacteroides fragilis [12] = experiment: Minimum inhibitory concentration required for the antibacterial activity against Bacillus fragilis 4661 Kr
Enterococcus [13] = experiment: Minimum inhibitory concentration required for the antibacterial activity against Enterococcus 9790
[14] = test system: Bacteroides thetaiotaomicron; experiment: Minimum inhibitory concentration required for the antibacterial activity against Bacillus thetaiotaomicron DSM 2079
Providencia sp. = experiment: Minimum inhibitory concentration required for the antibacterial activity against Providencia 12012
Clostridium septicum = experiment: Minimum inhibitory concentration required for the antibacterial activity against Clostridium septicum
Bacteroides ovatus = experiment: Minimum inhibitory concentration required for the antibacterial activity against Bacillus ovatus Heidelberg 32
Enterobacter cloacae = experiment: Minimum inhibitory concentration required for the antibacterial activity against Enterobacter cloacae 5744
Bacteroides fragilis [15] = experiment: Minimum inhibitory concentration required for the antibacterial activity against Bacillus fragilis ES 25
Staphylococcus aureus [16] = experiment: Minimum inhibitory concentration required for the antibacterial activity against Staphylococcus aureus 79B Innsbruck
[17] = test system: Prevotella melaninogenica; experiment: Minimum inhibitory concentration required for the antibacterial activity against Bacillus melaninogenicus Kr
Bacteroides fragilis [18] = experiment: Minimum inhibitory concentration required for the antibacterial activity against Bacillus fragilis 2034/35 Kr 43
Bacteroides fragilis [19] = experiment: Minimum inhibitory concentration required for the antibacterial activity against Bacillus fragilis 06688
Proteus vulgaris [20] = experiment: Minimum inhibitory concentration required for the antibacterial activity against Proteus vulgaris 1017
Staphylococcus aureus [21] = experiment: Minimum inhibitory concentration required for the antibacterial activity against Staphylococcus aureus 17N Munchen
Klebsiella [22] = experiment: Minimum inhibitory concentration required for the antibacterial activity against Klebsiella 6097
Staphylococcus aureus [23] = experiment: Minimum inhibitory concentration required for the antibacterial activity against Staphylococcus aureus 41h Belgium
Serratia = experiment: Minimum inhibitory concentration required for the antibacterial activity against Serratia 16002
Streptococcus pneumoniae = experiment: Minimum inhibitory concentration required for the antibacterial activity against Streptococcus pneumoniae 4959
[24] = test system: Fusobacterium necrophorum; experiment: Minimum inhibitory concentration required for the antibacterial activity against Sphaerophorus necrophorus Kr
Pseudomonas aeruginosa [25] = experiment: Minimum inhibitory concentration required for the antibacterial activity against Pseudomonas aeruginosa 7451
Pseudomonas aeruginosa [26] = experiment: Minimum inhibitory concentration required for the antibacterial activity against Pseudomonas aeruginosa Walter
Anaerococcus prevotii = experiment: Minimum inhibitory concentration required for the antibacterial activity against Peptococcus prevotii DSM 20548
Escherichia coli [27] = experiment: Minimum inhibitory concentration required for the antibacterial activity against Escherichia coli Neumann
[28] = test system: Peptoniphilus asaccharolyticus; experiment: Minimum inhibitory concentration required for the antibacterial activity against Peptococcus asacchar. DSM 20463
Staphylococcus aureus [29] = experiment: Minimum inhibitory concentration required for the antibacterial activity against Staphylococcus aureus 25085
Staphylococcus aureus [30] = experiment: Minimum inhibitory concentration required for the antibacterial activity against Staphylococcus aureus 21b Belgium
Bacteroides fragilis [31] = experiment: Minimum inhibitory concentration required for the antibacterial activity against Bacillus fragilis 010848
Micrococcus luteus = experiment: Minimum inhibitory concentration required for the antibacterial activity against Micrococcus luteus
Staphylococcus aureus [32] = experiment: Minimum inhibitory concentration required for the antibacterial activity against Staphylococcus aureus 25455
[33] = test system: Parabacteroides distasonis; experiment: Minimum inhibitory concentration required for the antibacterial activity against Bacillus distasonis Heidelberg
Staphylococcus aureus [34] = experiment: Minimum inhibitory concentration required for the antibacterial activity against Staphylococcus aureus 25464
Staphylococcus aureus [35] = experiment: Minimum inhibitory concentration required for the antibacterial activity against Staphylococcus aureus 86 Innsbruck
[36] = test system: Prevotella melaninogenica; experiment: Minimum inhibitory concentration required for the antibacterial activity against Bacillus melaninogenicus Heidelberg
Escherichia coli [37] = experiment: Minimum inhibitory concentration required for the antibacterial activity against Escherichia coli C165
Escherichia coli [38] = experiment: Minimum inhibitory concentration required for the antibacterial activity against Escherichia coli 183/58
Bacteroides fragilis [39] = experiment: Minimum inhibitory concentration required for the antibacterial activity against Bacillus fragilis L 1168 Italien
Staphylococcus aureus [40] = experiment: Minimum inhibitory concentration required for the antibacterial activity against Staphylococcus aureus 48N Munchen
Pseudomonas aeruginosa [41] = experiment: Minimum inhibitory concentration required for the antibacterial activity against Pseudomonas aeruginosa F41
Staphylococcus aureus [42] = experiment: Minimum inhibitory concentration required for the antibacterial activity against Staphylococcus aureus 77 Innsbruck
Fusobacterium nucleatum = experiment: Minimum inhibitory concentration required for the antibacterial activity against Fusobacterium nucleatum DSM 20482
Clostridium perfringens [43] = experiment: Minimum inhibitory concentration required for the antibacterial activity against Clostridium perfringens 24072
Clostridium sporogenes = experiment: Minimum inhibitory concentration required for the antibacterial activity against Clostridium sporogenes
[44] = test system: Peptostreptococcus anaerobius; experiment: Minimum inhibitory concentration required for the antibacterial activity against Peptostrept. anaer. DSM 20357
Staphylococcus aureus [45] = experiment: Minimum inhibitory concentration required for the antibacterial activity against Staphylococcus aureus 25697
[46] = test system: Peptostreptococcus anaerobius; experiment: Minimum inhibitory concentration required for the antibacterial activity against Peptostrept. anaer. Kr I
Bacteroides fragilis [47] = experiment: Minimum inhibitory concentration required for the antibacterial activity against Bacillus fragilis Kr II
Proteus mirabilis = experiment: Minimum inhibitory concentration required for the antibacterial activity against Proteus mirabilis 1235
Staphylococcus aureus [48] = experiment: Minimum inhibitory concentration required for the antibacterial activity against Staphylococcus aureus 25768
Escherichia coli [49] = experiment: Minimum inhibitory concentration required for the antibacterial activity against Escherichia coli T A261
[50] = test system: Peptostreptococcus anaerobius; experiment: Minimum inhibitory concentration required for the antibacterial activity against Peptostrept. anaer. Kr II

C[C@@H](O)[C@H]1C(=O)N2C(C(=O)[O-])=C(C(C)(C)C)O[C@H]12.[K+]
MIC (Thomasclavelia ramosa): 1 µg/mL
MIC (Staphylococcus): ≤ 0.06 µg/mL
MIC (Bacteroides fragilis [1]): 2 µg/mL
MIC (Escherichia coli [2]): 2 µg/mL
MIC (Bacteroides fragilis [3]): 2 µg/mL
MIC (Proteus vulgaris [4]): 1 µg/mL
MIC (Klebsiella [5]): 4 µg/mL
MIC (Staphylococcus aureus [6]): ≤ 0.78 µg/mL
MIC (Clostridium perfringens [7]): 1 µg/mL
MIC (Enterococcus [8]): 16 µg/mL
MIC (Phocaeicola vulgatus): 1 µg/mL
MIC (Morganella morganii): 2 µg/mL
MIC (Bacteroides fragilis [9]): 2 µg/mL
MIC [10]: 1 µg/mL
MIC (Staphylococcus aureus [11]): 2 µg/mL
MIC (Staphylococcus aureus [11]; Staphylococcus aureus, read-out: MIC): 1.56 µg/mL
MIC (Bacteroides fragilis [12]): 2 µg/mL
MIC (Enterococcus [13]): 2 µg/mL
MIC [14]: 1 µg/mL
MIC (Providencia sp.): 4 µg/mL
MIC (Clostridium septicum): 2 µg/mL
MIC (Bacteroides ovatus): 2 µg/mL
MIC (Enterobacter cloacae): 32 µg/mL
MIC (Bacteroides fragilis [15]): 2 µg/mL
MIC (Staphylococcus aureus [16]): ≤ 0.78 µg/mL
MIC [17]: 0.5 µg/mL
MIC (Bacteroides fragilis [18]): 2 µg/mL
MIC (Bacteroides fragilis [19]): 2 µg/mL
MIC (Proteus vulgaris [20]): 1 µg/mL
MIC (Staphylococcus aureus [21]): 1.56 µg/mL
MIC (Klebsiella [22]): 16 µg/mL
MIC (Staphylococcus aureus [23]): 12.5 µg/mL
MIC (Serratia): 64 µg/mL
MIC (Streptococcus pneumoniae): 0.25 µg/mL
MIC [24]: 1 µg/mL
MIC (Pseudomonas aeruginosa [25]): > 128 µg/mL
MIC (Pseudomonas aeruginosa [26]): > 128 µg/mL
MIC (Anaerococcus prevotii): 2 µg/mL
MIC (Escherichia coli [27]): 2 µg/mL
MIC [28]: 0.5 µg/mL
MIC (Staphylococcus aureus [29]): 1.56 µg/mL
MIC (Staphylococcus aureus [30]): 12.5 µg/mL
MIC (Bacteroides fragilis [31]): 2 µg/mL
MIC (Micrococcus luteus): ≤ 0.06 µg/mL
MIC (Staphylococcus aureus [32]): 0.12 µg/mL
MIC [33]: 8 µg/mL
MIC (Staphylococcus aureus [34]): 3.12 µg/mL
MIC (Staphylococcus aureus [35]): ≤ 0.78 µg/mL
MIC [36]: 4 µg/mL
MIC (Escherichia coli [37]): 8 µg/mL
MIC (Escherichia coli [38]): 1 µg/mL
MIC (Bacteroides fragilis [39]): 2 µg/mL
MIC (Staphylococcus aureus [40]): ≤ 0.78 µg/mL
MIC (Pseudomonas aeruginosa [41]): > 128 µg/mL
MIC (Staphylococcus aureus [42]): ≤ 0.78 µg/mL
MIC (Fusobacterium nucleatum): 0.5 µg/mL
MIC (Clostridium perfringens [43]): 0.5 µg/mL
MIC (Clostridium sporogenes): 0.5 µg/mL
MIC [44]: 1 µg/mL
MIC (Staphylococcus aureus [45]): 1.56 µg/mL
MIC [46]: 2 µg/mL
MIC (Bacteroides fragilis [47]): 2 µg/mL
MIC (Proteus mirabilis): 4 µg/mL
MIC (Staphylococcus aureus [48]): ≤ 0.78 µg/mL
MIC (Escherichia coli [49]): 2 µg/mL
MIC [50]: 0.25 µg/mL
